Data from ChEMBL document CHEMBL4602732, “Optimizing Pyrazolopyrimidine Inhibitors of Calcium Dependent Protein Kinase 1 for Treatment of Acute and Chronic Toxoplasmosis” (J Med Chem, 2020).

How the values were obtained:
[1] = Protein binding in mouse plasma assessed as unbound fraction at 2 uM measured after 4 hrs by LC-MS/MS analysis; type: ADME, cell-free
[2] = test system: Src (human) versus Toxoplasma gondii CDPK1; assay: Selectivity ratio of IC50 for inhibition of human Src expressed in Escherichia coli BL21 to IC50 for inhibition of Toxoplasma gondii full-length wild-type C-terminal His-tagged CDPK1 expressed in Escherichia coli BL21(DE3)V2RpAcYc-LIC+LamP; type: toxicity; settings: read-out: Ratio IC50
[3] = test system: Toxoplasma gondii; assay: Antiparasitic activity against type 2 Toxoplasma gondii ME49 tachyzoites infected in HFF assessed as reduction in parasite growth; type: functional, organism-based
[4] = Cmax in CD1 mouse at 3 mg/kg, iv or 10 mg/kg, po administered via gavage by LC-MS/MS analysis; type: ADME, organism-based; settings: in vivo
[5] = Clearance in human hepatocytes assessed per million cells at 1 uM by LC-MS/MS analysis; type: ADME, cell-based, Hepatocyte
[6] = Inhibition of Toxoplasma gondii full-length C-terminal His-tagged CDPK1 G128M mutant expressed in Escherichia coli BL21(DE3)V2RpAcYc-LIC+LamP using syntide-2 peptide as substrate incubated for 20 to 40 mins by ELISA
[7] = Half life in CD1 mouse at 3 mg/kg, iv or 10 mg/kg, po administered via gavage by LC-MS/MS analysis; type: ADME, organism-based; settings: in vivo
[8] = Ratio of drug level in central nervous system to plasma in CD1 mouse at 10 mg/kg, po administered via gavage measured after 8 hrs by LC-MS/MS analysis; type: ADME, organism-based, CNS/Plasma; settings: central nervous system and plasma
[9] = AUC in CD1 mouse at 3 mg/kg, iv or 10 mg/kg, po administered via gavage by LC-MS/MS analysis; type: ADME, organism-based; settings: in vivo
[10] = test system: MDR1; assay: Efflux ratio of apparent permeability across basolateral to apical side over apical to basolateral side in MDCK2-MDR1 cells at 2 uM measured after 150 mins by LC-MS/MS analysis; type: ADME, cell-based, Canis lupus familiaris; settings: dog, MDCK-MDR1
[11] = Half life in mouse liver microsomes at 10 uM preincubated for 10 mins followed by NADPH addition by LC-MS/MS analysis; type: ADME, Microsome; settings: microsomes, 10 µM
[12] = Kinetic solubility of the compound in pH 7.4 phosphate buffer measured after 24 hrs by UV-HPLC analysis; type: physicochemical; settings: pH 7.4, 24 h
[13] = Cytotoxicity against human HepG2 cells assessed as cell growth at 20 uM measured after 72 hrs by cellTiter 96 AQueous non-radioactive cell proliferation assay relative to control; type: cell-based; settings: read-out: Activity
[14] = test system: Toxoplasma gondii; assay: Antiparasitic activity against 2F clone of type 1 Toxoplasma gondii RH tachyzoites expressing beta-galactosidase infected in HFF assessed as reduction in parasite growth measured after 72 hrs by chlorophenol Red-beta-D-galactopyranoside substrate based assay; type: functional, organism-based
[15] = Cytotoxicity against MDCK cells assessed as cell growth at 20 uM measured after 72 hrs by cellTiter 96 AQueous non-radioactive cell proliferation assay relative to control; type: cell-based, Canis lupus familiaris; settings: dog, read-out: Activity
[16] = biological target: T1, Aldehyde oxidase (Homo sapiens, UniProt Q06278); assay: Drug metabolism in human liver S9 fraction assessed as aldehyde oxidase-mediated drug metabolism by measuring rate of parent compound decay at 1 uM measured after 90 mins by LC-MS/MS analysis; type: ADME, subcellular
T1 sequence (Q06278 whole entry): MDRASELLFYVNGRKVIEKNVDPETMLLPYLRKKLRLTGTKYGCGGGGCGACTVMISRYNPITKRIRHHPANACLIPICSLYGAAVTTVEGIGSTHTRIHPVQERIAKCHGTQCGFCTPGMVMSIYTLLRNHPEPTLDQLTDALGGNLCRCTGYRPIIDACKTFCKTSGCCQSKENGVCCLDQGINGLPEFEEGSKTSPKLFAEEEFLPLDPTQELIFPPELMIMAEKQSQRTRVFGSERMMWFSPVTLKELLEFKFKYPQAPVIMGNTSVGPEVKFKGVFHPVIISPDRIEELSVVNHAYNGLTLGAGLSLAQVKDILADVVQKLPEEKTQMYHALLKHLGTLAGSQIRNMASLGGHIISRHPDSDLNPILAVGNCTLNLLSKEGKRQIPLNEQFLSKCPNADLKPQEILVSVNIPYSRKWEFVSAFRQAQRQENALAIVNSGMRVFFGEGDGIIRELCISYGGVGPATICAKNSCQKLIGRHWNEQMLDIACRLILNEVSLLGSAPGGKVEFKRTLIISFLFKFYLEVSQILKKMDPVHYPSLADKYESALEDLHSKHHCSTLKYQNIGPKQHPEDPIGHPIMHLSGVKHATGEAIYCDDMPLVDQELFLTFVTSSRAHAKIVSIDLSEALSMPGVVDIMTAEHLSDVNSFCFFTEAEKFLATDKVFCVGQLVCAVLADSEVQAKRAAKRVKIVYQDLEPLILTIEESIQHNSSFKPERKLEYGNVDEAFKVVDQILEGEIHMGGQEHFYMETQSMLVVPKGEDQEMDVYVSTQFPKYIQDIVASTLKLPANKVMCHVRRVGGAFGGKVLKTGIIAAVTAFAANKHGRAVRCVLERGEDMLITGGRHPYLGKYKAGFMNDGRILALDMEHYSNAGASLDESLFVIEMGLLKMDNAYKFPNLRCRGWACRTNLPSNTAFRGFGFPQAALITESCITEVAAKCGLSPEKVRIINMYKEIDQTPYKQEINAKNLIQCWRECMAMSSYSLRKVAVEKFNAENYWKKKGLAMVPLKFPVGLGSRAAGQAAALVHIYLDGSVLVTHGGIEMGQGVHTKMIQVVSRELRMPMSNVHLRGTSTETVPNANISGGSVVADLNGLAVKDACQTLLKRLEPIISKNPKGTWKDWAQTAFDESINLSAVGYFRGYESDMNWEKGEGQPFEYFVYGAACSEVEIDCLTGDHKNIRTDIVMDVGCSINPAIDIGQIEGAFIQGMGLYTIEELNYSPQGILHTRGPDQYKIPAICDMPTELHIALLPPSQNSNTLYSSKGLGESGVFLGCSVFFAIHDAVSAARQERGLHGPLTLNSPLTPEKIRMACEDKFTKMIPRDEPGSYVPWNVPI

[17] = biological target: LCK (Homo sapiens, UniProt P06239); assay: Inhibition of wild-type human partial length LCK (R207 to P509 residues) expressed in bacterial expression system at 10 uM by Kinomescan method relative to control
Sequence of LCK (P06239 whole entry, the tested form may be a part): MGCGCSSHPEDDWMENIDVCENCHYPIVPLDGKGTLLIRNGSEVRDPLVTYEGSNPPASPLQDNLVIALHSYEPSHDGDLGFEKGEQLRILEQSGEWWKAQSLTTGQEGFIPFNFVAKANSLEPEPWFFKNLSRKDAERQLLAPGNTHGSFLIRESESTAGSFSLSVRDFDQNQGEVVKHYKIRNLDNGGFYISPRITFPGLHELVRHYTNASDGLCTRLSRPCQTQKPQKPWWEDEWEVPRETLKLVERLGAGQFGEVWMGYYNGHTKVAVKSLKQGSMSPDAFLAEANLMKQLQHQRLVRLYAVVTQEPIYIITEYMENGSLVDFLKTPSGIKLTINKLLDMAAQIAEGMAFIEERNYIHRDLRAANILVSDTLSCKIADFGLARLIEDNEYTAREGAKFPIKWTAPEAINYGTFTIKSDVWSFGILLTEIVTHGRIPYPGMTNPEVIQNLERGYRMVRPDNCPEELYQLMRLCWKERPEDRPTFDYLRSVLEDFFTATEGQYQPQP

[18] = biological target: Voltage-gated inwardly rectifying potassium channel KCNH2 (Homo sapiens, UniProt Q12809); assay: Inhibition of human ERG expressed in CHOK1 cells by patch-clamp electrophysiology assay; type: cell-based, CHO-K1
Sequence of Voltage-gated inwardly rectifying potassium channel KCNH2 (Q12809 whole entry): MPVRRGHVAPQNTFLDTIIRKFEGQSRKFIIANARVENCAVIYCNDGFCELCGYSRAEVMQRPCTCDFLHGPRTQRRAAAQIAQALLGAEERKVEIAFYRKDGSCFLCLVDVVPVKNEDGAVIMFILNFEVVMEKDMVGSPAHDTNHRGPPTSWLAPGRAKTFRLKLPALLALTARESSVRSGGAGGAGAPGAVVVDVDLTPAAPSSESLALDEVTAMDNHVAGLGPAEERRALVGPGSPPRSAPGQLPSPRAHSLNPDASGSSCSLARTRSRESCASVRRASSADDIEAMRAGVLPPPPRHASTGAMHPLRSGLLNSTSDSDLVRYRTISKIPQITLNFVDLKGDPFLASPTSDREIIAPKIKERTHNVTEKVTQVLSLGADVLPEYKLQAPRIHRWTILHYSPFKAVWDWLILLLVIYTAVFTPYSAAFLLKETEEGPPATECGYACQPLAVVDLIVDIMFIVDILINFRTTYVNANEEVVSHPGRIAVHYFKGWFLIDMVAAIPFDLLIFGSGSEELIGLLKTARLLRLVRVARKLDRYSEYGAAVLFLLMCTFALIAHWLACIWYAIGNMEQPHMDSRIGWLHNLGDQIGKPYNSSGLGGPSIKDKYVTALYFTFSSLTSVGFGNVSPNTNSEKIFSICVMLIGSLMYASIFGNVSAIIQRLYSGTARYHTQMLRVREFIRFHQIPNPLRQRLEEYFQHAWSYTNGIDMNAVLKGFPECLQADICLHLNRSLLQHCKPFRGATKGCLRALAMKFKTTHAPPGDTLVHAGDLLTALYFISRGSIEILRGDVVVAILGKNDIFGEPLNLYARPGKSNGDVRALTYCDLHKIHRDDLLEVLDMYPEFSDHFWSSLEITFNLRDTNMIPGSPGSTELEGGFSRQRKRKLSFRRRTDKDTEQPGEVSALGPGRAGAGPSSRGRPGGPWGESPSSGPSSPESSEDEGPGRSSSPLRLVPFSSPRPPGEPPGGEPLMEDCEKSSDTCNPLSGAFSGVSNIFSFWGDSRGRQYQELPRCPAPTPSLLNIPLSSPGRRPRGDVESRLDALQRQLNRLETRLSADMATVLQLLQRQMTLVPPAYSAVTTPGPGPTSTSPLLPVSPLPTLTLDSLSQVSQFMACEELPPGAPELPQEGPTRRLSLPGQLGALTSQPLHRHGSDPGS

[19] = Cytotoxicity against human Caco2 cells assessed as cell growth at 20 uM measured after 72 hrs by cellTiter 96 AQueous non-radioactive cell proliferation assay relative to control; type: cell-based, Caco-2; settings: read-out: Activity
[20] = Apparent permeability across apical to basolateral side in MDCK2-MDR1 cells at 2 uM measured after 150 mins by LC-MS/MS analysis; type: ADME, cell-based, Canis lupus familiaris; settings: dog, mdck-mdr1, […]
[21] = test system: Toxoplasma gondii; assay: Antiparasitic activity against Toxoplasma gondii type III CTG tachyzoites infected in HFF assessed as reduction in parasite growth; type: functional, organism-based
[22] = Intrinsic clearance in human liver microsomes at 10 uM preincubated for 10 mins followed by NADPH addition by LC-MS/MS analysis; type: ADME, Microsome; settings: read-out: CLH
[23] = Cytotoxicity against HFF monolayers assessed as cell growth measured after 72 hrs by luciferase reporter gene assay relative to control; type: cell-based; settings: human, read-out: Activity
[24] = Half life in human liver microsomes at 10 uM preincubated for 10 mins followed by NADPH addition by LC-MS/MS analysis; type: ADME, Microsome; settings: liver microsomes
[25] = biological target: Proto-oncogene tyrosine-protein kinase Src (Homo sapiens, UniProt P12931); assay: Inhibition of human Src expressed in Escherichia coli BL21 using Abltide peptide as substrate incubated for 20 to 40 mins by ELISA
Sequence of Proto-oncogene tyrosine-protein kinase Src (P12931 2-536 limits assumed): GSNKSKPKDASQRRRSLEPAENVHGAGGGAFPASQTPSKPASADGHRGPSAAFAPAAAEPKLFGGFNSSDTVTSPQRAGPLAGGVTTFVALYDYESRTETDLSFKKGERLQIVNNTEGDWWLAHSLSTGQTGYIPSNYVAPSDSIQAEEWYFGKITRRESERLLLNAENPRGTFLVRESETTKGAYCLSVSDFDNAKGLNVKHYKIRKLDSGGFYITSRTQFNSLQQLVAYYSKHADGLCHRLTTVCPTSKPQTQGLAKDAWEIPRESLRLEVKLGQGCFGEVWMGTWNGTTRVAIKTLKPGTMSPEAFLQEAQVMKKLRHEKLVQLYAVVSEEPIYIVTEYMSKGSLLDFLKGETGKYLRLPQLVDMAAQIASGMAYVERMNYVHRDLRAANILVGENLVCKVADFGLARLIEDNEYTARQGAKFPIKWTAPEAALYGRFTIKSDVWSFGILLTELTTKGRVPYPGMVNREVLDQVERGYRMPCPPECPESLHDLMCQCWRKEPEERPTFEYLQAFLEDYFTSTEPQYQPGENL

[26] = Oral bioavailability in CD1 mouse at 10 mg/kg administered via gavage by LC-MS/MS analysis; type: ADME, organism-based; settings: in vivo
[27] = Protein binding in mouse brain assessed as unbound fraction; type: ADME, tissue-based
[28] = Cytotoxicity against human CMEC/D3 cells assessed as cell growth at 20 uM measured after 72 hrs by cellTiter 96 AQueous non-radioactive cell proliferation assay relative to control; type: cell-based, hCMEC/D3; settings: read-out: Activity
[29] = Inhibition of Toxoplasma gondii full-length wild-type C-terminal His-tagged CDPK1 expressed in Escherichia coli BL21(DE3)V2RpAcYc-LIC+LamP using syntide-2 peptide as substrate incubated for 20 to 40 mins by ELISA
[30] = Cytotoxicity against human SH-SY5Y cells assessed as cell growth at 20 uM measured after 72 hrs by cellTiter 96 AQueous non-radioactive cell proliferation assay relative to control; type: cell-based; settings: read-out: Activity

Compound: Nc1ncnc2c1c(Oc1cc(C(F)(F)F)ccn1)nn2[C@@H]1CCCC[C@H]1O
- Fu [1]: 24.3%
- selectivity ratio [2]: > 1000
- EC50 [3]: 89.6 nM
- Cmax [4]: 620 ng/mL
- CLH [5]: < 6.4 µL/min/1e6 cells
- IC50 [6]: > 20000 nM
- t1/2 [7]: 2.17 h
- Kp at 8 h [8]: 0.47
- AUC [9]: 1100 ng·h/mL
- efflux ratio at […], 2 µM [10]: 1.23
- t1/2 [11]: 1.1 h
- Kinetic_solubility [12]: 92.73 µM
- viability at 72 h, 20 µM [13]: 99%
- EC50 [14]: 77 to 77.5 nM
- viability at 72 h, 20 µM [15]: 77.3%
- Drug metabolism [16]: < 3.2 µL/min/mg
- inhibition at 10 µM [17]: 45%
- IC50 [18]: > 30000 nM
- viability at 72 h, 20 µM [19]: 100%
- Papp [20]: 21.43 ×10⁻⁶ cm/s
- EC50 [21]: 227 nM
- CLint scaled at 10 µM [22]: < 8.6 mL/min/kg
- viability at 72 h [23]: 107%
- half-life at 10 µM [24]: > 2.42 h
- IC50 [25]: > 20000 nM
- bioavailability [26]: 48.9%
- fraction unbound [27]: 0.041
- viability at 72 h, 20 µM [28]: 126%
- IC50 [29]: 6.6 nM
- viability at 72 h, 20 µM [30]: 105%
